Results published in ChEMBL document CHEMBL1201862, “PubChem BioAssay data set” (2004).
Activity calls are given as the source filed them. Cut-off read from the data, not from the text of the source, for most assays here: actives have a measured EC50 and inactives only a lower limit.

Assays:
[1] = Luminescence Cell-Based Dose Retest to Confirm Inhibitors of Cancer Stem Cells. [Related pubchem assays (depositor defined):AID2717, AID2721]; type: functional; conditions: Homo sapiens
[2] = target: T1, Heat shock factor protein 1 (Mus musculus, UniProt P38532); assay: HSF1 potentiators in luciferase reporter cells, confirmation, cell-based, NIH3T3, luminescence, dose retest (AID 435004); type: functional;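 note: stress induced by proteasome inhibitor MG132 added 30 min after compound; luciferase reporter driven by HSF1 response element in NIH3T3 cells; actives raise luminescence as potentiators of the MG132 stress response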
T1 sequence (P38532 whole entry): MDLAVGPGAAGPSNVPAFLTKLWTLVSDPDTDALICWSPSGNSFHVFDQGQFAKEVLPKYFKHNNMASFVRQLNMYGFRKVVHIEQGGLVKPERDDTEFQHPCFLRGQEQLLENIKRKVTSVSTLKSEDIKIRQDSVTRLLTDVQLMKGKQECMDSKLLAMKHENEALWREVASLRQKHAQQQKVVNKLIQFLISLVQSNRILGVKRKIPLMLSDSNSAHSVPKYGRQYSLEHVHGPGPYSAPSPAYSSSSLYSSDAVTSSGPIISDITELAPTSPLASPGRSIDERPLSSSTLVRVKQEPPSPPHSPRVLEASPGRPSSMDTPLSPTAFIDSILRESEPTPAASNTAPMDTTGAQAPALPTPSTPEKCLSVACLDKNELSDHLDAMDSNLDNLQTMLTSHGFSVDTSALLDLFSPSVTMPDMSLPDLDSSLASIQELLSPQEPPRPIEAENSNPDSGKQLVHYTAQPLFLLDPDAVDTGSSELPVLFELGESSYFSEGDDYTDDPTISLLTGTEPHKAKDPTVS

[3] = target: T2, Replicative DNA helicase DnaB (Mycobacterium tuberculosis, UniProt P9WMR3); assay: DnaB intein splicing inhibitors, dose response, biochemical, cell-free fluorescence (AID 449749); type: functional
T2 sequence (P9WMR3 whole entry): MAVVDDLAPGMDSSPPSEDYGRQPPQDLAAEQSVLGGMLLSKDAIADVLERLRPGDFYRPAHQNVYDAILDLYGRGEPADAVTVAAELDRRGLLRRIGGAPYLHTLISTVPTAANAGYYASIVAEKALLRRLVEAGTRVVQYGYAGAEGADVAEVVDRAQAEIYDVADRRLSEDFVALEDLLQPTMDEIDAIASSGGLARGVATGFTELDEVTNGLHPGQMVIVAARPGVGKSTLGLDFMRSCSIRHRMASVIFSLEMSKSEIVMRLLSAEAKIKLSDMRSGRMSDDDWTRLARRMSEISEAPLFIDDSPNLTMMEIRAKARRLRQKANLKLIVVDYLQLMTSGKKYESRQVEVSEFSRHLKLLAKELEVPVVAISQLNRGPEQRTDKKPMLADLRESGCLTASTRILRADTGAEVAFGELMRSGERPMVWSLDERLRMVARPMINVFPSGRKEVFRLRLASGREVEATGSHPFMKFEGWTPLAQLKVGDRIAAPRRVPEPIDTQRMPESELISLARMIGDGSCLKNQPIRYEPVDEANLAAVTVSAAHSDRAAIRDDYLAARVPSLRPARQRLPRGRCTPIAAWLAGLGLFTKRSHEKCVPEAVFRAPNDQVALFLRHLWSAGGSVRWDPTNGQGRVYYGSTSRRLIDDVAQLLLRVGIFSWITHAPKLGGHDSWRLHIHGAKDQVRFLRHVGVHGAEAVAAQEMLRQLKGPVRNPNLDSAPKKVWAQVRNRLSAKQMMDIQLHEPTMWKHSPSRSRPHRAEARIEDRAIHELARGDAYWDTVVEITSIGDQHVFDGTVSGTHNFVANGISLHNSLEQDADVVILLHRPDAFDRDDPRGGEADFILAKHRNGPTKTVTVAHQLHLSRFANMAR

Protein RecA = target: T3, Protein RecA (Mycobacterium tuberculosis, UniProt P9WHJ3); assay: Fluorescence Cell-Free Homogeneous Dose Retest to Identify Inhibitors of RecA-Intein Splicing Activity. [Related pubchem assays (depositor defined):AID2097, AID2223, AID489010, AID492950]; type: functional
T3 sequence (P9WHJ3 whole entry): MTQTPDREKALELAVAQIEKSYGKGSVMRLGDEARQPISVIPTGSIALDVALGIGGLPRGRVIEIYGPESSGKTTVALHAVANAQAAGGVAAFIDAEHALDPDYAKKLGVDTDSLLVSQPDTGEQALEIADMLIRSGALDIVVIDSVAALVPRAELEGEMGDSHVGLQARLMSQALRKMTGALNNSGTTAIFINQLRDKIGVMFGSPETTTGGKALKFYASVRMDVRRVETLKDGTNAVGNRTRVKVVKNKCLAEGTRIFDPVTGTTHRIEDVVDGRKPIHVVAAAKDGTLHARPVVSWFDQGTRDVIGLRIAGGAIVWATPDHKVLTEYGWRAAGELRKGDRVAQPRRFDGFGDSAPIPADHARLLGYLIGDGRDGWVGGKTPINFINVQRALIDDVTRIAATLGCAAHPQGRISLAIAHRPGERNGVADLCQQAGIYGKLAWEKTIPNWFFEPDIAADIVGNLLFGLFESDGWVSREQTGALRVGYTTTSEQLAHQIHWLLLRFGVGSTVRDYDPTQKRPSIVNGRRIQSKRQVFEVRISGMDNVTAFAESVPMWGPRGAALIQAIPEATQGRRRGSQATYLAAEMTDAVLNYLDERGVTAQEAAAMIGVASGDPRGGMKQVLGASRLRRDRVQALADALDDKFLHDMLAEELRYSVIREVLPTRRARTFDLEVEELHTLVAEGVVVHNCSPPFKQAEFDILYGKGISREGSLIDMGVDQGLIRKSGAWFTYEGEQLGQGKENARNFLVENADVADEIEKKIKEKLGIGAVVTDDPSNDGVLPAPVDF

[4] = target: T1, Heat shock factor protein 1; assay: inhibition of MG132-induced HSE-luciferase signal, confirmation, cell-based, NIH3T3, luminescence, dose retest (AID 2382); type: functional;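 note: NIH3T3 fibroblasts with HSF1-driven luciferase reporter stressed by proteasome inhibitor MG132; luminescence from HSF1-driven luciferase expression after 8 hours of MG132 stress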
Streptokinase A = target: T4, Streptokinase A (Streptococcus pyogenes serotype M1, UniProt P10520); assay: S. pyogenes streptokinase expression inhibitors, potency, dose response, plasminogen activation absorbance, OD405 (AID 1914); type: functional, Streptococcus pyogenes M1 GAS;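 note: secreted streptokinase activity via plasminogen activation per viability signal from cell pellet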
T4 sequence (P10520 whole entry): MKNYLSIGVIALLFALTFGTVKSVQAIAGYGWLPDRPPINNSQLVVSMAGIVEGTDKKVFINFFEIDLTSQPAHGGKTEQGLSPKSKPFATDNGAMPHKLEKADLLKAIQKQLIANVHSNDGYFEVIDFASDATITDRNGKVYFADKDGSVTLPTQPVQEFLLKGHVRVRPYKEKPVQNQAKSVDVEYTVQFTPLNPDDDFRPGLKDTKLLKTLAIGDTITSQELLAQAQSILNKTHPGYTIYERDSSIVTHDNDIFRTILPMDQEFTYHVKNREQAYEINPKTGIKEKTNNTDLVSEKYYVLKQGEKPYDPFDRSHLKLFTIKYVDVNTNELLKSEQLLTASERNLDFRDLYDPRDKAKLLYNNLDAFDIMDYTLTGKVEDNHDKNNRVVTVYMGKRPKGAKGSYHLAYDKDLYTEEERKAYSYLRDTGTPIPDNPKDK

[5] = system: Streptococcus sp. 'group A'; assay: growth inhibition of control SK(-) GAS strain, dose response, counter-screen for streptokinase expression inhibitor project, luminescence, kanamycin, BacTiterGlo, confirmation (AID 1900); type: functional, organism-based
Streptococcus = assay: Group A Streptococcus viability loss, dose response, counter-screen for streptokinase expression inhibitor project, luminescence, BacTiterGlo (AID 1915); type: functional, organism-based;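 note: potency for reduction of bacterial viability or growth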
Cytochrome P450 1A2 = target: T5, Cytochrome P450 1A2 (Homo sapiens, UniProt P05177);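 note: PubChem cytochrome P450 panel assay, CYP1A2 panel member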
T5 sequence (P05177 whole entry): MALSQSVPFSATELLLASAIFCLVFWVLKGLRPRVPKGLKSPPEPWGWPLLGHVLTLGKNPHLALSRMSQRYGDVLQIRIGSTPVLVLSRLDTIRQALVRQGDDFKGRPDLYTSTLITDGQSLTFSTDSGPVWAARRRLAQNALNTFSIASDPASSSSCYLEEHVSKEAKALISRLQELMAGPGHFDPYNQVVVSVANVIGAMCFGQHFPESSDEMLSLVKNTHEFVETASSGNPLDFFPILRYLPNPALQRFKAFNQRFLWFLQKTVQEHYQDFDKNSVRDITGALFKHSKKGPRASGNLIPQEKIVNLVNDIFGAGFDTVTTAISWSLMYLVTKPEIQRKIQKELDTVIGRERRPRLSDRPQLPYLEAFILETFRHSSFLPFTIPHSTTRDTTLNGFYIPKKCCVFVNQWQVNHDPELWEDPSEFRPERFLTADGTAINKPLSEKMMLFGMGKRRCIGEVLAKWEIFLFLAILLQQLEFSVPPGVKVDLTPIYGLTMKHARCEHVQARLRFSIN

[6] = inhibitors of intracellular T. cruzi replication, confirmation, NIH3T3 host cells, beta-gal luminescence (AID 2044); type: functional, cell-based;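 note: intracellular parasites grown in NIH/3T3 mouse fibroblasts as host cells; luminescent beta-galactosidase reporter signal from transgenic T. cruzi replicating inside host cells; inhibitors lower the luminescence signal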
[7] = cytotoxicity toward NIH3T3 fibroblasts, dose response, counter-screen, cell-based, ATP luminescence, mouse fibroblasts (AID 2010); type: functional;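 note: cells exposed to compound for about 90 hours before reading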
[8] = HEp-2 cell cytotoxicity, dose response, cytotoxicity control for RSV inhibitor project, HTS (AID 2410); type: functional; conditions: human respiratory syncytial virus
Cytochrome P450 3A4 = Cytochrome P450 3A4 (Homo sapiens, UniProt P08684);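 note: CYP3A4 tested as one member of a cytochrome P450 panel screen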
Chain of Cytochrome P450 3A4 (P08684 whole entry): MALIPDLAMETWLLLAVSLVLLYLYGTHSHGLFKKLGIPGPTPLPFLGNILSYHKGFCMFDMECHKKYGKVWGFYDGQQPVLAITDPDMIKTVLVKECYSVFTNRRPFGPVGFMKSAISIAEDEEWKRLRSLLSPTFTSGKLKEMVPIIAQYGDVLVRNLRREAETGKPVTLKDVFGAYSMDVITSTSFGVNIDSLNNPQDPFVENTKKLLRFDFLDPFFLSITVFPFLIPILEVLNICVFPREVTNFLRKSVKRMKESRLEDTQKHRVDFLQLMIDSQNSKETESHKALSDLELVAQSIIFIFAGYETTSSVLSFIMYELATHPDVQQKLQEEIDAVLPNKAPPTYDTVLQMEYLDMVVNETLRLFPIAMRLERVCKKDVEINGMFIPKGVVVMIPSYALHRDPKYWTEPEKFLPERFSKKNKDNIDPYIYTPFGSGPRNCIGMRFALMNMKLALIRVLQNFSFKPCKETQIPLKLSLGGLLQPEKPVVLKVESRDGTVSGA

NC(=O)CC(NC(=O)Cc1cccc2ccccc12)c1ccc(NCc2ccc(F)c(F)c2)c([N+](=O)[O-])c1 (configuration not stated)
AC50 [1]: 11.2 µM (active)

O=C(CCc1ccc(S(=O)(=O)N2CCOCC2)cc1)N1CCN(Cc2ccc3c(c2)OCO3)CC1
EC50 [2]: > 260 µM (inactive)

O=C(CSC1=NCCS1)Nc1nc(-c2ccccc2)cs1
AC50 [3]: > 380 µM (inconclusive)
EC50 (Protein RecA): 7.45 µM (active)

CCc1c(C)nc2ccc(C)cc2c1O
EC50 [4]: > 195 µM (not active)

COc1ccc(NC(=O)c2[nH]cnc2C(=O)N[C@@H](CC(C)C)C(=O)OC(C)(C)C)cc1
EC50 (Streptokinase A): > 150 µM (not active)
AC50 [1]: 7.16 µM (active)
EC50 [5]: 4.08 µM (active)
EC50 (Streptococcus): 11.6 µM (active)

Cc1noc(C)c1CSCC(=O)Oc1ccc(N(C)S(=O)(=O)c2ccc(Cl)cc2)cc1
AC50 [3]: 2.34 µM (active)
EC50 (Protein RecA): 13.8 µM (active)

COc1ccc2nc(SCC(=O)NN)cc(C)c2c1
AC50 [3]: 50.5 µM (active)
AC50 (Cytochrome P450 1A2): 0.398 µM (inconclusive)
EC50 (Protein RecA): 10.6 µM (active)

Cc1ccc(N2C(=O)C(Cl)=C(N3CCOCC3)C2=O)c(C)c1
AC50 [3]: 16 µM (active)
EC50 (Protein RecA): 4.19 µM (active)

COc1ccc(Br)cc1CN1CCCCCCC1
EC50 [2]: > 260 µM (inactive)

CCOC(=O)CN1C(=O)S/C(=C/c2cc(C)n(C)c2C)C1=O
EC50 [4]: > 195 µM (not active)

CCOC(=O)c1nn(-c2ccc(F)cc2)c(-c2ccccc2)c1C(=O)c1ccccc1
AC50 [1]: 5.46 µM (active)

FC(F)(F)c1cnc(Sc2nc3nccc(-c4ccc(Cl)cc4)n3n2)c(Cl)c1
EC50 [2]: > 260 µM (inactive)
EC50 [6]: 1.72 µM (active)
EC50 [7]: > 30 µM (not active)

COc1ccc(S(=O)(=O)Cc2ccc(C(=O)NCCCN(C)c3ccccc3)o2)cc1
EC50 [2]: > 260 µM (inactive)

COc1cc(/C=C/C(=O)c2c(O)ccc3c(C)cc(=O)oc23)ccc1O
EC50 [2]: 15 µM (active)

S=C(NCCc1ccccc1)N1CCN(Cc2ccc(Cl)c(Cl)c2)CC1
EC50 [4]: > 195 µM (not active)

Oc1ccc(Nc2nc(-c3ccccc3O)nc3ccccc23)cc1
AC50 [1]: 2.71 µM (active)

CCOc1ccc(OCc2ccc(C(=O)N3CCc4ccccc4C3)o2)cc1
CC50 [8]: 23.4 µM (active)
AC50 (Cytochrome P450 3A4): 39.8 µM (inconclusive)

COc1ccc(-c2cc(C(=O)NCc3ccco3)c3ccccc3n2)cc1
EC50 [2]: 158 µM (active)

Cc1ccc(OCCN2CCN(c3nc(NCc4ccco4)c4ccccc4n3)CC2)cc1
AC50 [1]: 4.7 µM (active)
EC50 [6]: 1.35 µM (active)
EC50 [7]: 6.18 µM (active)

CCOC(=O)c1cc(C#N)c(NCc2ccccc2)nc1C
EC50 [4]: > 195 µM (not active)

CCC1(C)Cc2c(sc3nc(SC)n(Cc4ccccc4)c(=O)c23)CO1 (configuration not stated)
AC50 [1]: 0.259 µM (active)

COc1ccc(Cc2nnc(SCC(=O)Nc3ccc(N4CCOCC4)cc3)o2)cc1
EC50 [2]: > 260 µM (inactive)

COc1cccc(NP(=O)(Oc2ccc(Cl)cc2)Oc2ccc(Cl)cc2)c1
EC50 (Streptokinase A): 4.68 µM (active)
AC50 [1]: 3.11 µM (active)
EC50 [5]: 6.17 µM (active)
EC50 (Streptococcus): 11.2 µM (active)

Cc1ccc(C(=O)NCC(C)NC(=O)c2ccc(C)c([N+](=O)[O-])c2)cc1[N+](=O)[O-] (configuration not stated)
EC50 [2]: > 260 µM (inactive)

C=CCc1ccc(OCC(O)CO)c(OC)c1 (configuration not stated)
EC50 [2]: > 260 µM (inactive)

Oc1cccnc1Sc1cccc(C(F)(F)F)c1
EC50 [2]: 165 µM (active)

CN(/C(=N\S(=O)(=O)c1ccccc1)c1ccccc1)c1ccc(O)cc1
EC50 [2]: > 260 µM (inactive)

COc1ccccc1/C=C/C=N/n1c(S)nnc1-c1[nH]nc2c1CCC2
AC50 [1]: 13.7 µM (active)

O=C(CCNc1cccc(F)c1)c1cccc([N+](=O)[O-])c1
AC50 [3]: > 380 µM (inactive)
EC50 (Protein RecA): > 380 µM (inactive)

Cc1[nH]n(C(C)(C)C)c(=O)c1Sc1ccccc1
AC50 [3]: 19.1 µM (active)
EC50 (Protein RecA): 2.02 µM (active)

O=C(CNC(=O)C1COc2ccccc2O1)N/N=C\c1ccccc1Cl (configuration not stated)
AC50 [3]: 189 µM (active)
EC50 (Protein RecA): > 380 µM (inactive)

COC(=O)C1C(=O)C2=C(CC1C)N=C(C)/C(=C(/O)OCc1ccc(OC)cc1)C2c1ccc(C)o1 (configuration not stated)
EC50 [2]: > 260 µM (inactive)

COc1cc(NC(=O)c2cc([N+](=O)[O-])ccc2NC(=O)CNC2CCCCC2C)cc(OC)c1 (configuration not stated)
EC50 [2]: > 260 µM (inactive)
